Results on 2 compounds are retold here after US6756033B2, “Method for delivering benzindene prostaglandins by inhalation” (United Therapeutics Corporation, priority 1999, dated 2004).

Data set [1] has as its system U44069 induced pulmonary hypertension. The data set is classed as in vivo, sheep. The text has this:
(§1) The efficacy of benzindene prostaglandins, such as UT-15, for treating pulmonary hypertension can be assessed by determining the hemodynamics associated with pulmonary hypertension. In particular, measurements of pulmonary arterial pressure (PPA), left atrial pressure (PLA), central venous pressure (PCV), systemic arterial pressure (PSYS), heart rate (HR), and cardiac output (CO) are useful in determining the effects of benzindene prostaglandins delivered by inhalation or parenterally.
(§2) Heart rate was determined by measuring the time (seconds) required for 25 heart beats to occur (t25) as indicated by the pulsations on the blood flow meter; the beats per minute (BPM) were calculated by the following equation: […]
(§3) All pressure may be monitored by commercially available transducers, such as Model 1290A HEWLETT PACKARD™ transducer (Andover, Mass.), which is attached to VALIDYNE CD19A Carrier Dmod. Amplifiers (Northridge, Calif.). Cardiac output may be measured by a Transonic Systems T101 Ultrasonic Bloodflow Meter (Ithaca, N.Y.). The pressure and blood flow signals may be recorded on ASTROMED MT-9500 Stripchart Recorder (West Warwick, R.I.) and digitally recorded with a personal computer using Easy Data Acquisition Software (Nashville, Tenn.).
Sheep were used as the animal model of choice for these experiments for a number of reasons. First is the docile nature of sheep. They will stand quietly in metabolic cages without having to utilize tranquilizing drugs, which have the potential to complicate experimental results. Second, sheep are large enough to allow direct measurement of CO, PPA, PLA, PCV, and PSYS. Sheep are also large enough to allow direct aerosolization of substances into the lung via trachoestomy thereby preventing swallowing of drugs and thus eliminating a possible secondary route of administration of UT-15. Third, sheep can tolerate a great amount of instrumentation with little or no discomfort. Fourth, sheep have been utilized for several years as an animal model of pulmonary arterial hypertension and thus, there is a great amount of historical data with which to compare the results. The agent chosen to induce pulmonary arterial hypertension was a PGH2 analog, U44069 (9,11-dideoxy,9α,11α-epoxymethanoprostaglandin F2α). The reasons for using U44069 are that it is a very potent pulmonary vasoconstrictor, its characteristics are very similar to endogenously formed thromboxane A2, and it can be titrated to induce the desired degree of pulmonary vasoconstriction. U44069 was mixed with sterile normal saline immediately prior to being used and was protected from light by wrapping the solution with aluminum foil. The concentration of U44069 was adjusted such that a minimal flow rate of 0.8 ml per min was being infused into the sheep. This was done because more concentrated U44069 would have to be infused at very low rates and often causes “pulses” of U44069 due to the infusion characteristics of roller pumps. The U44069 pulses cause vasoconstriction “spikes” and thus would create induce a non-steady-state.
Six yearling sheep (3 males, 3 females; 21-37 kg) were fasted 18-24 hours and initially anesthetized with a short acting barbiturate (thiopental) to allow intubation of the sheep. Halothane gas anesthesia (1.5-2.5%) was then used for the surgical procedures. Via a left thoracotomy, a Transonic blood flow probe was placed around the main pulmonary artery, silastic catheters placed in the main pulmonary artery and left atrium. After approximately 7 days the sheep were reanesthetized and the left carotid artery cannulated, a Cordis Introducer Sheath inserted in the left jugular vein, and a tracheotomy made. The sheep were allowed to recover for another 3-5 days prior to experimentation. […]

Data set [2] concerns sheep. Description: Intravenous and aerosolized UT-15 dose response effects on baseline hemodynamics. The data set is classed as in vivo. As to conditions: baseline conditions; for central venous pressure (PCV) relative to baseline / pulmonary arterial pressure (PPA) relative to baseline: any dose; for systemic arterial pressure (PSYS): any administration rate; for cardiac output (CO) relative to baseline: any delivery rate.
Source text: as §1, §2, §3
Inhalation solutions were prepared by combining 1.25 grams of Sodium Citrate (Hydrous), 0.125 Citric Acid (Anhydrous), 0.05 grams of Sodium Hydroxide (NF/BP), 0.125 grams of UT-15, and approximately 250 ml of Water for Injection according to the following steps.
Working solution was made by adding sterile saline to dilute the UT15 stock solution or placebo to the desired amount (depending on dose desired, weight of sheep, and duration of aerosolizing). This solution was then added to the nebulizer in volumes not exceeding 5 ml until entire amount was used.
Six yearling sheep (3 males, 3 females; 21-37 kg) were fasted 18-24 hours and initially anesthetized with a short acting barbiturate (thiopental) to allow intubation of the sheep. Halothane gas anesthesia (1.5-2.5%) was then used for the surgical procedures. Via a left thoracotomy, a Transonic blood flow probe was placed around the main pulmonary artery, silastic catheters placed in the main pulmonary artery and left atrium. After approximately 7 days the sheep were reanesthetized and the left carotid artery cannulated, a Cordis Introducer Sheath inserted in the left jugular vein, and a tracheotomy made. The sheep were allowed to recover for another 3-5 days prior to experimentation. These sheep were used to allow measurement of pulmonary arterial pressure (PPA), left atrial pressure (PLA), central venous pressure (PCV), systemic arterial pressure (PSYS), heart rate (HR), and cardiac output (CO) after baseline measurements were made for a minimum of 30 minutes.
Two separate experiments were conducted to determine the dose response effects of intravenously infused UT-15 on baseline hemodynamics and aerosolized UT-15 on baseline hemodynamics. For the infusion experimental protocol, after a 30 minute baseline was established, UT-15 was infused intravenously at 3 rates (250, 500 and 1000 ng per kg per min). In three sheep, the infusion rates lasted for 30 minutes each, and for the other three sheep, the infusions were for 60 minutes each.
The aerosolized UT-15 protocol involved establishing a 30 minute baseline, then administering aerosolized UT-15 via a tracheostromy at rates of […] per kg of body weight per min and at an aerosolization rate of 0.28 ml/min. Again, three sheep were aerosolized for 30 minutes and the other three sheep were aerosolized for 60 minutes.

The subject of data set [3] is sheep. The data set is described as above. The data set is classed as in vivo. Conditions: baseline conditions, aerosolized, 250, 500, and 100 ng per kg per min.
The test system of the next data set is blood platelets. As to conditions: cited from earlier work.
[4] abbreviates: U44069 iv infusion alone, 1 ng per kg per min.

Take `CCCCC[C@H](O)/C=C/C1C2COC(C2)C1C/C=C\CCCC(=O)O` (stereo partly drawn) [U44069, 9,11-dideoxy,9α,11α-epoxymethanoprostaglandin F2α, reference compound]: in data set [1] (setting [4]), the left atrial pressure result is “did not alter left atrial pressure significantly”, the “pulmonary arterial pressure (PPA) relative to baseline” value is “significantly increased” and the “pulmonary vascular resistance (PVR)” value is “dramatic increase”.
On to `CCCCC[C@H](O)CC[C@@H]1[C@H]2Cc3cccc(OCC(=O)O)c3C[C@H]2C[C@H]1O` [UT-15, 9-deoxy-2′,9-alpha-methano-3-oxa-4,5,6-trinor-3,7-(1′,3′-interphenylene)-13,14-dihydro-prostaglandin F1], for which the “central venous pressure (PCV) relative to baseline” value in the data set on sheep [2] (aerosol) and in the data set with sheep [2] (intravenous) was “no statistical difference” in each case. For the same compound, the “pulmonary vascular resistance (PVR)” value with sheep [2] (aerosolized, all 3 delivery rates) was “significant decrease”; in the data set with sheep [2] (intravenous) it was “no significant effect”. Further, the “systemic arterial pressure (PSYS)” value in the data set on sheep [2] (aerosolized) and in the data set on sheep [2] (intravenous) was “no significant effect” throughout. Further, the “cardiac output (CO) relative to baseline” value in the data set on sheep [2] (aerosolized) and in the data set with sheep [2] (intravenous) was “no significant changes” each time. In addition, the “pulmonary arterial pressure (PPA) relative to baseline” value in the data set with sheep [2] (aerosolized, not statistically different) is given as “general trend for PPA to decrease”; in the data set on sheep [2] (intravenous) it was “same effects”. Besides, the “left atrial pressure (PLA) relative to baseline” value in the data set with sheep [2] (aerosolized, mean values increased) is “neither intravenous nor aerosolized UT-15 caused PLA to significantly change”; in the data set with sheep [2] (intravenous, mean values decreased), “neither intravenous nor aerosolized UT-15 caused PLA to significantly change”. The “potency and efficacy in attenuating chemically induced pulmonary hypertension (increase in PVR)” value in data set [1] (aerosolized UT-15 compared to intravascularly administered UT-15) was “greater potency and efficacy”. For the same compound, the central venous pressure entry in data set [1] (during iv U44069, aerosol UT-15, only 500 ng per kg per min) is reported as “different from the corresponding intravenous UT-15 infusion value”. In addition, in data set [1] (during iv U44069, aerosolized UT-15, 500 and 1000 ng per kg per min), the “pulmonary arterial pressure (PPA)” value was “back to normal values”. In addition, the “pulmonary vascular resistance (PVR) relative to baseline PVR” value in data set [1] (during iv U44069, aerosolized UT-15, any of the three delivery rates) was “no significant difference”. In addition, the “pulmonary arterial pressure (PPA) versus U44069 value” in data set [1] (during iv U44069, intravascular UT-15) is “decrease significantly”. For the same compound, the “pulmonary vascular resistance (PVR), U44069-induced increase” value in data set [1] (during iv U44069, intravenously infused UT-15, 500 and 1000 ng per kg per min) is recorded as “significantly attenuated”. Besides, in data set [1] (during iv U44069, intravenously infused UT-15, all three delivery rates), the “left atrial pressure versus U44069 value” is “significant decrease”. Also, the “peripheral effects (heart rate, cardiac output)” value in data set [1] (in vivo) is given as “no apparent peripheral effects”. Also, the “pulmonary vascular driving pressure (PPA minus PLA) versus baseline” value in the data set with sheep [3] is recorded as “significant”. Besides, in the data set on blood platelets, the “anti-aggregatory action on blood platelets” value was “potent anti-aggregatory action”.
